Measurements taken from ChEMBL document CHEMBL1201862, “PubChem BioAssay data set” (2004).
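Dose response: 5 concentrations. Exposure: 48 h. Format: 96-well plates. Endpoint: linear interpolation; highest concentration if not reached. GI50: concentration for 50% inhibition of growth.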 The source made the active and inactive calls. Cut-off read from the data, not from the text of the source: active = GI50 up to about 1.1 µM and inactive = higher.

Tests used:
Experiment in all cases: inhibition of tumour cell growth, NCI panel, 48 h
HOP-18 = test system: HOP-18
LXFL 529 = test system: LXFL 529
RXF 631 = test system: RXF 631
DLD-1 = test system: DLD-1
XF498 = test system: XF498
SNB-78 = test system: SNB-78
DMS-273 = test system: DMS-273
KM-20L2 = test system: KM-20L2
M19-MEL = test system: M19-MEL

## CCCCCCCCCCCC(=O)c1c(O)cccc1O
HOP-18
  GI50: 16.2 µM (inactive)
LXFL 529
  GI50: 18.5 µM (inactive)
RXF 631
  GI50: 18.7 µM (inactive)
DLD-1
  GI50: 17.8 µM (inactive)
XF498
  GI50: 18.3 µM (inactive)
SNB-78
  GI50: 21.8 µM (inactive)
DMS-273
  GI50: 18.9 µM (inactive)
KM-20L2
  GI50: 21.7 µM (inactive)
M19-MEL
  GI50: 18.8 µM (inactive)

## Cc1c(C(=O)Nc2ccc(Cl)c(C(F)(F)F)c2)oc2cc(O)ccc2/c1=N\NC(N)=S
HOP-18
  GI50: > 100 µM (inactive)
LXFL 529
  GI50: > 100 µM (inactive)
DLD-1
  GI50: > 100 µM (inactive)
XF498
  GI50: > 100 µM (inactive)
SNB-78
  GI50: > 100 µM (inactive)
DMS-273
  GI50: > 100 µM (inactive)
KM-20L2
  GI50: > 100 µM (inactive)
M19-MEL
  GI50: > 100 µM (inactive)

## Oc1cc2cc(-c3ccccc3)[nH]c2c2ccccc12
HOP-18
  GI50: 32.7 µM (inactive)
LXFL 529
  GI50: 24.5 µM (inactive)
RXF 631
  GI50: 22.7 µM (inactive)
DLD-1
  GI50: 32 µM (inactive)
XF498
  GI50: 1.63 µM (inactive)
SNB-78
  GI50: 54.6 µM (inactive)
DMS-273
  GI50: 0.592 µM (active)
KM-20L2
  GI50: > 96.2 µM (inactive)
M19-MEL
  GI50: 15.5 µM (inactive)

## COc1cc(/C=N\c2ccc(C(C)C)cc2)cc(OC)c1OC
HOP-18
  GI50: > 100 µM (inactive)
LXFL 529
  GI50: 99.5 µM (inactive)
DLD-1
  GI50: > 100 µM (inactive)
XF498
  GI50: > 100 µM (inactive)
SNB-78
  GI50: > 100 µM (inactive)
DMS-273
  GI50: > 72.4 µM (inactive)
KM-20L2
  GI50: > 100 µM (inactive)
M19-MEL
  GI50: > 92 µM (inactive)

## CCC1c2cc3n(c(=O)c2COC1O)Cc1c-3nc2ccccc2c1Cl (stereo not drawn)
HOP-18
  GI50: > 75.7 µM (inactive)
LXFL 529
  GI50: > 80.7 µM (inactive)
DLD-1
  GI50: 99.1 µM (inactive)
XF498
  GI50: > 100 µM (inactive)
SNB-78
  GI50: > 100 µM (inactive)
DMS-273
  GI50: 4.4 µM (inactive)
KM-20L2
  GI50: > 69.7 µM (inactive)
M19-MEL
  GI50: 69.3 µM (inactive)

## CC(C)(C)C1CCC2(CC1)CCN(CCCN1CCOCC1)CC2
LXFL 529
  GI50: 8.36 µM (inactive)
RXF 631
  GI50: 14.4 µM (inactive)
DLD-1
  GI50: 24.4 µM (inactive)
SNB-78
  GI50: 38.5 µM (inactive)
DMS-273
  GI50: 19.3 µM (inactive)
KM-20L2
  GI50: 2.18 µM (inactive)
M19-MEL
  GI50: 12.5 µM (inactive)

## Clc1ccc(C2=Nc3ccccc3SC(c3cccs3)C2)cc1 (stereo not drawn)
HOP-18
  GI50: 18.6 µM (inactive)
LXFL 529
  GI50: 17.5 µM (inactive)
DLD-1
  GI50: 10.1 µM (inactive)
XF498
  GI50: 16.1 µM (inactive)
SNB-78
  GI50: 28.9 µM (inactive)
DMS-273
  GI50: 14 µM (inactive)
KM-20L2
  GI50: 16.6 µM (inactive)
M19-MEL
  GI50: 15.2 µM (inactive)

## COc1nc(OC)c2c(=O)oc(-c3ccccc3)cc2n1
LXFL 529
  GI50: > 100 µM (inactive)
SNB-78
  GI50: > 100 µM (inactive)
DMS-273
  GI50: > 100 µM (inactive)
KM-20L2
  GI50: > 100 µM (inactive)
M19-MEL
  GI50: > 100 µM (inactive)

## COc1ccc2c(c1)CC1NC2Cc2ccccc21 (stereo not drawn)
HOP-18
  GI50: > 100 µM (inactive)
LXFL 529
  GI50: > 100 µM (inactive)
DLD-1
  GI50: > 100 µM (inactive)
XF498
  GI50: > 100 µM (inactive)
SNB-78
  GI50: > 100 µM (inactive)
KM-20L2
  GI50: > 100 µM (inactive)
M19-MEL
  GI50: > 100 µM (inactive)

## N=C(N)NNC(=O)CCCCCCCC(=O)NNC(=N)N
LXFL 529
  GI50: > 100 µM (inactive)
RXF 631
  GI50: > 100 µM (inactive)
DLD-1
  GI50: > 100 µM (inactive)
SNB-78
  GI50: > 100 µM (inactive)
DMS-273
  GI50: > 100 µM (inactive)
KM-20L2
  GI50: > 100 µM (inactive)
M19-MEL
  GI50: > 100 µM (inactive)

## CCOC(=O)C1=C(C)NC(=O)NC1c1ccc(OC)cc1OC (stereo not drawn)
HOP-18
  GI50: > 100 µM (inactive)
LXFL 529
  GI50: > 100 µM (inactive)
DLD-1
  GI50: > 100 µM (inactive)
XF498
  GI50: > 100 µM (inactive)
SNB-78
  GI50: > 100 µM (inactive)
DMS-273
  GI50: > 100 µM (inactive)
KM-20L2
  GI50: > 100 µM (inactive)
M19-MEL
  GI50: > 100 µM (inactive)

## COc1cc(NS(=O)(=O)c2ccc(C)cc2)c2nccnc2c1
HOP-18
  GI50: 93.5 µM (inactive)
LXFL 529
  GI50: 20.8 µM (inactive)
DLD-1
  GI50: 30.3 µM (inactive)
XF498
  GI50: 29 µM (inactive)
DMS-273
  GI50: 23.6 µM (inactive)
KM-20L2
  GI50: 32.1 µM (inactive)
M19-MEL
  GI50: 19.5 µM (inactive)

## CCOC(=O)C1=C(Nc2cccc3ccccc23)OCC1=O
LXFL 529
  GI50: > 100 µM (inactive)
RXF 631
  GI50: > 100 µM (inactive)
DLD-1
  GI50: > 100 µM (inactive)
XF498
  GI50: > 100 µM (inactive)
SNB-78
  GI50: > 100 µM (inactive)
DMS-273
  GI50: > 100 µM (inactive)
KM-20L2
  GI50: > 100 µM (inactive)

## O=C1C=CC(=O)c2nc3c(cc21)CCC3
HOP-18
  GI50: 14.5 µM (inactive)
LXFL 529
  GI50: 15.5 µM (inactive)
RXF 631
  GI50: > 100 µM (inactive)
DLD-1
  GI50: 18.7 µM (inactive)
XF498
  GI50: 18.6 µM (inactive)
SNB-78
  GI50: 18.5 µM (inactive)
DMS-273
  GI50: 20.3 µM (inactive)
M19-MEL
  GI50: 17.2 µM (inactive)

## c1ccc2c(c1)CCc1c(-c3n[nH]c4c3CCc3ccccc3-4)n[nH]c1-2
HOP-18
  GI50: > 100 µM (inactive)
LXFL 529
  GI50: > 100 µM (inactive)
RXF 631
  GI50: > 100 µM (inactive)
DLD-1
  GI50: > 100 µM (inactive)
XF498
  GI50: > 100 µM (inactive)
SNB-78
  GI50: > 100 µM (inactive)
DMS-273
  GI50: > 100 µM (inactive)
KM-20L2
  GI50: > 100 µM (inactive)
M19-MEL
  GI50: > 100 µM (inactive)

## CCC1=CC2CN3Cn4c(c(COCc5c6n(c7ccccc57)CN5CC7C=C(CC)C5C6(C(=O)OC)C7)c5ccccc54)C(C(=O)OC)(C2)C13
LXFL 529
  GI50: > 100 µM (inactive)
DLD-1
  GI50: > 100 µM (inactive)
XF498
  GI50: > 100 µM (inactive)
DMS-273
  GI50: > 100 µM (inactive)
KM-20L2
  GI50: > 100 µM (inactive)
M19-MEL
  GI50: 47.2 µM (inactive)

## Nc1ccc(C(=O)NN2C(=O)C(Cl)C2c2ccc([N+](=O)[O-])cc2)cc1 (stereo not drawn)
LXFL 529
  GI50: 4.86 µM (inactive)
DLD-1
  GI50: 9.79 µM (inactive)
SNB-78
  GI50: 22.6 µM (inactive)
DMS-273
  GI50: 5.62 µM (inactive)
KM-20L2
  GI50: 13.4 µM (inactive)
M19-MEL
  GI50: 14.6 µM (inactive)

## Brc1cccc(C2SCc3nc4ccccc4n32)c1 (stereo not drawn)
LXFL 529
  GI50: 20.6 µM (inactive)
DLD-1
  GI50: 12.9 µM (inactive)
SNB-78
  GI50: 28.3 µM (inactive)
M19-MEL
  GI50: 18.2 µM (inactive)

## N=C(N)N/N=C/c1c[nH]c2ccccc12
HOP-18
  GI50: > 100 µM (inactive)
LXFL 529
  GI50: > 100 µM (inactive)
DLD-1
  GI50: > 100 µM (inactive)
SNB-78
  GI50: > 100 µM (inactive)
DMS-273
  GI50: > 100 µM (inactive)
KM-20L2
  GI50: > 100 µM (inactive)

## CNCCCNc1c2ccccc2nc2cccc([N+](=O)[O-])c12
HOP-18
  GI50: 0.0237 µM (active)
LXFL 529
  GI50: 0.00665 µM (active)
RXF 631
  GI50: 0.0286 µM (active)
DLD-1
  GI50: 0.00303 µM (active)
XF498
  GI50: 0.00247 µM (active)
SNB-78
  GI50: 0.00233 µM (active)
DMS-273
  GI50: 0.0152 µM (active)
KM-20L2
  GI50: 0.00416 µM (active)
M19-MEL
  GI50: 0.00387 µM (active)

## [O-][S+]1Nc2c(Cl)cc(Cl)c3c(Cl)cc(Cl)c(c23)N1
HOP-18
  GI50: 34.1 µM (inactive)
LXFL 529
  GI50: 40.3 µM (inactive)
RXF 631
  GI50: 31.8 µM (inactive)
DLD-1
  GI50: 28.6 µM (inactive)
DMS-273
  GI50: 39.4 µM (inactive)
KM-20L2
  GI50: 46.5 µM (inactive)
M19-MEL
  GI50: 32.4 µM (inactive)

## COc1cc(Cl)c2c3c(c(C(C)=O)oc13)CCC2
HOP-18
  GI50: > 100 µM (inactive)
LXFL 529
  GI50: > 100 µM (inactive)
RXF 631
  GI50: > 100 µM (inactive)
DLD-1
  GI50: > 100 µM (inactive)
SNB-78
  GI50: > 100 µM (inactive)
DMS-273
  GI50: > 100 µM (inactive)
KM-20L2
  GI50: > 100 µM (inactive)
M19-MEL
  GI50: > 100 µM (inactive)

## CN(C)c1ccc(C(C=C2c3ccccc3Sc3ccccc32)=C(C#N)C#N)cc1
HOP-18
  GI50: > 100 µM (inactive)
LXFL 529
  GI50: 86.7 µM (inactive)
RXF 631
  GI50: > 100 µM (inactive)
DLD-1
  GI50: > 100 µM (inactive)
XF498
  GI50: 58.7 µM (inactive)
SNB-78
  GI50: 45.1 µM (inactive)
DMS-273
  GI50: 6.81 µM (inactive)
KM-20L2
  GI50: 89.1 µM (inactive)
M19-MEL
  GI50: > 100 µM (inactive)

## CCCc1c2c([nH]c(=O)c1C)C(=O)c1[nH]c(=O)c(C)c(CCC)c1C2=O
HOP-18
  GI50: > 100 µM (inactive)
LXFL 529
  GI50: 63.2 µM (inactive)
SNB-78
  GI50: 30.3 µM (inactive)
M19-MEL
  GI50: 2.21 µM (inactive)

## O=C(/C=C/c1ccc[nH]1)c1ccccc1
HOP-18
  GI50: 40.2 µM (inactive)
LXFL 529
  GI50: > 100 µM (inactive)
DLD-1
  GI50: > 100 µM (inactive)
SNB-78
  GI50: > 100 µM (inactive)
DMS-273
  GI50: > 100 µM (inactive)
KM-20L2
  GI50: > 100 µM (inactive)
M19-MEL
  GI50: > 100 µM (inactive)

## COc1cc(/C=C\c2ccc(Br)cc2)cc(OC)c1OC
HOP-18
  GI50: 0.000721 µM (active)
LXFL 529
  GI50: 0.000891 µM (active)
RXF 631
  GI50: 0.01 µM (active)
DLD-1
  GI50: 0.00324 µM (active)
XF498
  GI50: 0.000678 µM (active)
SNB-78
  GI50: 0.000305 µM (active)
DMS-273
  GI50: 0.00332 µM (active)
KM-20L2
  GI50: 0.00033 µM (active)
M19-MEL
  GI50: 0.00524 µM (active)

## Nc1cccc2c1C(=O)c1cccc(N)c1C2=O
LXFL 529
  GI50: > 100 µM (inactive)
RXF 631
  GI50: > 100 µM (inactive)
DLD-1
  GI50: > 100 µM (inactive)
XF498
  GI50: 19.4 µM (inactive)
SNB-78
  GI50: > 100 µM (inactive)
DMS-273
  GI50: > 100 µM (inactive)
KM-20L2
  GI50: > 100 µM (inactive)
M19-MEL
  GI50: > 100 µM (inactive)
